Consider 2 compounds from patent US8597904B2, “Pharmaceutical compositions for the treatment of conditions responsive to proteasome inhibition” (priority 2007, dated 2013).

The subject of one test is TH-MYCN transgenic mouse. Description: chemoprevention in TH-MYCN mouse model of human neuroblastoma. The test is classed as in vivo. Particulars: homozygous mice, treatment from week 4 or 5, vs untreated mice. The source says:
The TH-MYCN transgenic mouse is a well-established neuroblastoma mouse model (Hansfored, et al. 2004. PNAS 101(34):12664-12669; Weiss, et al. 2007. Cancer Res 67(19):9435-9442; Weiss, et al. 2000. Cancer Res 6″2483-2487, each of which is incorporated herein by reference in its entirety). The tumors are caused by targeted expression of MYCN to the neural crest under the control of the rat tyrosine hydroxylase promoter, where the mice develop a tumor phenotype that closely resembles the human disease. The tumors in this strain of mouse generally develop in the abdominal and thoracic areas. TH-MYCN breeder pairs are supplied as hemizygote (129×1/SvJ-Tg(TH-MYCN)41Waw) and a wild type mate (129×1/SvJ).
Treatment regimen is similar to that described in Example 16. Test compounds are administered to homozygous mice at a dose that is developed based upon the results of the initial dose and toxicity study (Example 15). Two to four doses per compound are administered by i.p. and/or i.v. methods into homozygous mice at week 4 or 5 (in advance of tumor development, which occurs closer to week 7). Vehicle is delivered as a control. Further doses are administered every 72 hours thereafter for 3 to 6 weeks. Between eight to twelve mice are tested in the study for administration of each compound. […] At the conclusion of the study, the mice are sacrificed and tumor size and number of tumors are assessed.

Test [1] has as its system poly (ADP-ribose) polymerase (PARP). Description: Western blot of PARP cleavage in SK-N-SH cells. In kind it is cell-based, human. Here is the method:
The induction of an apoptotic response in cancer cells by the addition of syringolin A was verified by monitoring the cleavage of poly (ADP-ribose) polymerase (PARP), a common response during apoptosis. SK-N-SH cells were cultured in the presence or absence of 20 μM syringolin A for 0, 24 and 48 hours, and cell lysates were then generated as described in Example 4 and probed for the presence of PARP by Western blotting using rabbit polyclonal anti-PARP (#9542) (diluted 1:1000) and the HRP-linked anti-rabbit secondary antibody described in Example 4. The results were representative of four independent experiments. […] The treatment of cells for 48 hours further increased the levels of cleaved PARP, whereas noncleaved PARP disappeared. In a similar manner, syringolin A induced PARP cleavage in SKOV3 cells, but noncleaved PARP was still detected 48 hours after treatment (FIG. 5B).
The role of glidobactin A (GlbA) in apoptosis and its correlation with autophagy has not previously been examined. Therefore, in a series of experiments, cell lysates of SK-N-SH cells were treated with GlbA in the presence and absence of the autophagy inhibitor 3-methyladenine (3-MA) and probed for poly ADP-ribose polymerase (PARP). The cleavage of PARP produces a smaller 89 kDa fragment which is indicative of late apoptosis.
A general note: In western blotting, separated proteins are transferred to a membrane and probed.

In a further test the test system is p53. Description: Western blot of total p53 protein levels in SK-N-SH cells. In kind it is cell-based, human. Here is the method: Because p53 is a key regulator and mediator of apoptosis, the total protein levels of p53 in the p53-wild type cell line SK-N-SH were measured after treatment of cells with syringolin A. As a control, the p53-deficient cell line SKOV3 was tested in parallel. Cells at a concentration of 1.0×10^5 cells per ml were first seeded in six-well plates containing 2 ml of culture medium per well. […] Cells were incubated for 0, 24, and 48 hours, harvested, and lysed in radioimmuno-precipitation assay (RIPA) buffer (20 mM Tris-HCl, pH 7.5, 0.1% sodium lauryl sulphate, 0.5% sodium deoxycholate, 135 mM NaCl, 1% Triton X-100, 10% glycerol, 2 mM EDTA), supplemented with a protease inhibitor cocktail (Roche Molecular Biochemicals, Indianapolis, Ind.) and phosphatase inhibitors sodium fluoride (NaF; 20 mM) and sodium vanadate (Na3VO4; 0.27 mM). The total protein concentration was determined using the protein assay dye reagent from Bio-Rad Laboratories (Hercules, Calif.) and bovine serum albumin (BSA) as a standard. Cell lysates in Laemmli sample buffer (Bio-Rad Laboratories, Hercules, Calif.) containing 5% (v/v) β-mercaptoethanol were boiled for 5 minutes, and equal amounts of total protein were analyzed by 10% sodium dodecyl sulphate-polyacrylamide gel electrophoresis (SDS-PAGE) and Western blotting using PVDF membranes. p53 was detected in Western blotting with mouse monoclonal anti-p53 (sc-126) (diluted 1:250) from Santa Cruz Biotechnology (Santa Cruz, Calif.). Actin was also detected as a loading control using mouse monoclonal anti-β-actin (A5316) (diluted 1:1000) from Sigma Chemical Co. (St. Louis, Mo.). Alternatively, lysates were blotted with rabbit monoclonal anti-caspase-3 (#9665) (diluted 1:1000) or rabbit polyclonal anti-Akt (#9272) (diluted 1:1000), both from Cell Signalling Technology, Inc. (Beverly, Mass.) to test for levels of procaspase-3 and Akt/PKB. Secondary anti-mouse (diluted 1:5000) and anti-rabbit (diluted 1:5000) antibodies coupled to horseradish peroxidase (HRP) were from Amersham Biosciences (Piscataway, N.J.). Proteins were detected using the ECL Plus reagents (Amersham Biosciences, Piscataway, N.J.) and Kodak BioMax XAR film (Fisher Scientific, Pittsburgh, Pa.). The results are representative of three (p53, procaspase-3) or four (Akt/PKB) independent experiments.
As inhibition of the proteasome is expected to result in increased levels of ubiquitinated proteins (Meng, et al. 1999. Proc. Natl. Acad. Sci. U.S.A. 96:10403-10408, which is incorporated herein by reference in its entirety), the effect of syringolin A on total ubiquitinated protein accumulation was analyzed by immunoblot analysis. To do so, SK-N-SH cells were seeded in 6-well cell culture plates at a concentration of 3.8×10^5 cells per ml (1.98 ml per well). […]

The structures appear in SMILES notation.

For `CC(C)[C@H](NC(=O)N[C@H](C(=O)N[C@H]1/C=C/CCNC(=O)/C=C/[C@H](C(C)C)NC1=O)C(C)C)C(=O)O` [syringolin A], the tumor formation result with TH-MYCN transgenic mouse is “fewer or no tumors”. In test [1] (20 μM, 24 and 48 hours), the PARP cleavage result is recorded as “induces apoptosis-associated PARP cleavage”. For the same compound, the p53 levels result in the test with p53 (20 μM, 24 hours after treatment) is reported as “rapidly increased”. Further, the “protein levels of tumor suppressor protein p53” value in the test on p53 (25 μM, time-course up to 24 hours) was “time-dependent increase”.

`CCCCCCC/C=C/C=C/C(=O)N[C@H](C(=O)N[C@H]1C[C@@H](O)CCNC(=O)/C=C/[C@H](C)NC1=O)[C@@H](C)O` [glidobactin A]: in the test with TH-MYCN transgenic mouse, the tumor formation result is recorded as “fewer or no tumors”. In test [1] (Example 15, single agent), the PARP cleavage result is “PARP cleavage was observed”. Besides, in test [1] (GlbA with 3-MA), the “GlbA-induced PARP cleavage in presence of 3-MA” value is recorded as “slightly reduced this effect”. Moreover, the “total protein levels of p53” value with p53 (GlbA treatment) was “strong accumulation of p53”. Also, the “GlbA-induced p53 levels in presence of 3-MA” value in the test with p53 (GlbA with 3-MA) is reported as “partially reduced”.
